# Test results taken from PubChem BioAssay AID488994 (Sanford-Burnham Center for Chemical Genomics, 2010).
# Active and inactive are the calls of the source.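 The calls were made as follows: active = IC50 below 20 µM in the dose response test; inactive = the rest.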
# Target: Type-1 angiotensin II receptor (Homo sapiens) (UniProt P30556)
# Assay: AGTR1 antagonism selectivity check – cell-based, CHO-K1 PathHunter, luminescence, set 2, selectivity assay for APJ antagonist project, SAR follow-up (AID 488994)
# Conditions: CHO-K1 AGTR1 PathHunter beta-arrestin
# Type-1 angiotensin II receptor (Homo sapiens), sequence (P30556 whole entry, looked up): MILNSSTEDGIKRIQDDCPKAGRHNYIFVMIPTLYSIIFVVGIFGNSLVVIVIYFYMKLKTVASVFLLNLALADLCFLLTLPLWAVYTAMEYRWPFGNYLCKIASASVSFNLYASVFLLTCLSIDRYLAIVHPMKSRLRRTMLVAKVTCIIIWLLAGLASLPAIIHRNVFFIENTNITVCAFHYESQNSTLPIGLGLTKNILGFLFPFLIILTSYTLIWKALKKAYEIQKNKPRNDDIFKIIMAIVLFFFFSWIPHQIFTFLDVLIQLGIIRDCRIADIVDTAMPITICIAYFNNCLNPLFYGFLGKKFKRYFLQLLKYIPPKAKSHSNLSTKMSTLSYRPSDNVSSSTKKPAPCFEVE
row,Structure (SMILES),IC50
1,Cc1ccnc(SCc2cc(=O)c(OC(=O)C(C)C)co2)n1,> 79 µM (inactive)
2,O=C(Nc1ccc(CSc2ncccn2)cc1)c1ccccc1,> 79 µM (inactive)
3,COc1cc(CSc2nc(C)cc(C)n2)ccc1OC(=O)c1ccc([N+](=O)[O-])cc1,> 79 µM (inactive)
4,Cc1ccnc(SCc2cc(=O)c(OC(=O)c3ccc([N+](=O)[O-])o3)co2)n1,> 79 µM (inactive)
5,Cc1ccnc(SCc2cc(=O)c(OCc3ccc(Cl)c([N+](=O)[O-])c3)co2)n1,> 79 µM (inactive)
6,CC(=O)Oc1coc(CSc2nccc(C)n2)cc1=O,> 79 µM (inactive)
7,Cc1ccnc(SCc2cc(=O)c(OC(=O)c3ccno3)co2)n1,> 79 µM (inactive)
8,COc1cc(CSc2nc(C)cc(C)n2)ccc1OC(=O)c1ccccc1,> 79 µM (inactive)
9,Cc1ccnc(SCc2cc(=O)c(OC(=O)C(C)(C)C)co2)n1,> 79 µM (inactive)
10,COc1cc(CSc2nc(C)cc(C)n2)ccc1OC(=O)c1cccnc1,> 79 µM (inactive)
